According to ChEMBL document CHEMBL1144074, “Glycoside primers of Psittacanthus cucullaris” (J Nat Prod, 1999):
Calls of active or inactive are those of the source. The rule behind the calls is not given here.

Test system: CHO
Experiment: Stimulation of glycosaminoglycan chains formation in xylosyltransferase-deficient CHO pgsA-745 cells by liquid scintillation spectrophotometry
Assay type: functional, cell-based
Details: Cricetulus griseus

Structure (SMILES) | Activity
COc1cc2c(=O)oc3c(OC)c(O[C@@H]4OC[C@@H](O)[C@H](O)[C@H]4O)cc4c(=O)oc(c1OC)c2c34 | Active
COc1c(O)cc2c(=O)oc3c(OC)c(O[C@@H]4OC[C@@H](O)[C@H](O)[C@H]4O)cc4c(=O)oc1c2c34 | Active
